In patent US6623741B1, “Methods and compositions for inhibition of membrane fusion-associated events including RSV transmission” (Trimeris, Inc., priority 2000, dated 2003):

Columns and labels:
[1] = Circular dichroism spectroscopy (helicity, thermal stability); format: physicochemical; settings: 10 and 50 μM
Protocol: Circular Dichroism Spectroscopy:
Circular Dichroism (CD) spectra were obtained using an AVIV Associates 62DS spectrometer equipped with a thermoelectric temperature controller. Spectra were obtained in 0.1, 0.5 and 1.0 cm quartz cells at 1° C. with 0.5 nm steps from 200 to 260 nm, 1.5 nm bandwidth and an averaging time of 4 sec/step. After the cell/buffer blank was subtracted, spectra were smoothed using a third-order least-squares polynomial fit with a conservative (5-10 point) window size to give random residuals. Mixing experiments were performed by comparing the spectrum of the two peptides mixed together in a 0.1 cm path length cell at the desired concentrations (referred to herein as the “experimental” spectrum) to the sum of the individual spectra of the peptides, each solution in a 0.1 cm path length cell (referred to herein as the “model spectrum” for no peptide interaction or “model for no interaction”).
Raw ellipticity values were converted to mean residue ellipticity using standard methods (Cantor & Schimmel, 1980, Biophysical Chemistry Part II: Techniques for the Study of Biological Structure and Function, W.H. Freeman and Co., New York). Conversions for the mixing experiment spectra were performed using a peptide length corresponding to the average of the two peptides. Thermal stability measurements were performed in 2° C. steps, with 1 minute equilibration times. Spectra were smoothed, converted to mean residue ellipticity, and the corresponding value at 222 nm noted from each spectrum. Percent helicity values were calculated using single value decomposition with a basis set of 33 protein spectra (Johnson & Curtis, 1990, Proteins: Structure, Function and Genetics 7:205-214).

[2] = system: RSV; experiment: Anti-RSV antiviral activity assay (syncytial formation, HEp2 cells); format: cell-based, respiratory syncytial virus; settings: purified peptides
Protocol: Anti-RSV Antiviral Activity Assays:
The assay utilized herein tested the ability of the peptides to disrupt the ability of HEp2 cells acutely infected with RSV (i.e., cells which are infected with a multiplicity of infection of greater than 2) to fuse and cause syncytial formation on a monolayer of uninfected an uninfected line of Hep-2 cells. The lower the observed level of fusion, the greater the antiviral activity of the peptide was determined to be. […]
After incubation, cells in control wells were checked for fusion centers, media was removed from the wells, followed by addition, to each well, of either Crystal Violet stain or XTT. […] The number of syncytia per well were then counted, using a dissecting microscope.
With respect to XTT (2,3-bis[2-Methoxy-4-nitro-5-sulfophenyl]-2H-tetrazolium-5-carboxyanilide inner salt), 50 μl XTT (1 mg/ml in RPMI buffered with 100 mM HEPES, pH 7.2-7.4, plus 5% DMSO) were added to each well. The OD450/690 was measured (after blanking against growth medium without cells or reagents, and against reagents) according to standard procedures. […]

## CC[C@H](C)[C@H](NC(=O)[C@H](Cc1ccccc1)NC(=O)[C@H](C)NC(=O)[C@H](CC(C)C)NC(=O)[C@H](CO)NC(=O)[C@H](CCC(N)=O)NC(=O)[C@H](CC(N)=O)NC(=O)[C@@H](NC(=O)[C@H](CCCCN)NC(=O)[C@H](CCC(=O)O)NC(=O)[C@H](CC(N)=O)NC(=O)[C@@H](NC(=O)[C@H](CCC(N)=O)NC(=O)[C@H](CO)NC(=O)[C@@H](NC(=O)[C@H](CO)NC(=O)[C@H](C)NC(=O)[C@H](CC(=O)O)NC(=O)[C@H](Cc1ccccc1)NC(=O)[C@H](CCC(=O)O)NC(=O)[C@H](CC(=O)O)NC(=O)[C@H](CO)NC(=O)[C@@H]1CCCN1C(=O)[C@H](Cc1ccccc1)NC(=O)[C@@H](NC(C)=O)C(C)C)[C@@H](C)CC)C(C)C)[C@@H](C)CC)C(=O)N[C@@H](CCCNC(=N)N)C(=O)N[C@@H](CCCCN)C(=O)N[C@@H](CO)C(=O)N[C@@H](CC(=O)O)C(=O)N[C@@H](CCC(=O)O)C(=O)N[C@@H](CC(C)C)C(=O)N[C@@H](CC(C)C)C(=O)N[C@@H](Cc1c[nH]cn1)C(=O)N[C@@H](CC(N)=O)C(=O)N[C@H](C(N)=O)C(C)C [Peptide T112]
[1]
  thermal stability (CD melting curves, in words): little thermal stability
[1]; PBS solution
  helicity: less than 10%
[2]
  anti-RSV antiviral activity (in words): substantial antiviral activity
